Assay results taken from PMC8881077 (Journal of Enzyme Inhibition and Medicinal Chemistry, 2022).
Like-named read-outs stand apart in the source and are kept apart here.

Columns and labels:
ratAChE = target: T1, ratAChE (Rattus norvegicus, UniProt P37136); test: biochemical; settings: for SI: Selectivity Index = IC50 (BuChE)/IC50 (AChE), rat enzymes; for IC50: from 5% rat cortex homogenate
T1 construct: AChE from 5% rat cortex homogenate or human erythrocytes (Sigma Co.); from tissue; host or cells: 5% rat cortex homogenate
T1 sequence (P37136 32-614): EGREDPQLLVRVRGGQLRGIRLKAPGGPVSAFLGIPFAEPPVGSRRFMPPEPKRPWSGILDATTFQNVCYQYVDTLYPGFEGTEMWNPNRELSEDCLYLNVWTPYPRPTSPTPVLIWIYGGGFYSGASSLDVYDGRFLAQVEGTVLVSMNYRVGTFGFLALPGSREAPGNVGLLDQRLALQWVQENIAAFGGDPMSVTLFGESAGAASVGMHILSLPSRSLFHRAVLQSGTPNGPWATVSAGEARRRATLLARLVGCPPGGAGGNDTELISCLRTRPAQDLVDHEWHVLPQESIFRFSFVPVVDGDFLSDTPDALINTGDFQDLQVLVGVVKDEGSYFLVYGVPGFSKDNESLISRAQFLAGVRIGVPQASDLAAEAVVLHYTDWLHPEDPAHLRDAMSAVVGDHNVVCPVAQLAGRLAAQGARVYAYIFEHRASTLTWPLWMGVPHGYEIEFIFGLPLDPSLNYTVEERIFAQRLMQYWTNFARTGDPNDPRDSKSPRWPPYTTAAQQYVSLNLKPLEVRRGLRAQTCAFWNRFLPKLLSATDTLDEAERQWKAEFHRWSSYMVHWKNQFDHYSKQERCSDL
Description: (§1) The AChE and BuChE inhibitory activities of the synthesised compounds were evaluated using the Ellman assay with slight modification. AChE from 5% rat cortex homogenate or human erythrocytes (Sigma Co.). BuChE from rat serum or human serum (Sigma Co.).

[1] = Trolox as standard
Description: The skeleton compounds naringenin and apigenin were also evaluated for comparison purposes, and vitamin E analogue Trolox was used as a standard.
The antioxidant potency of target compounds was tested using an oxygen radical absorbance capacity fluorescein (ORAC-FL) assay.

ratBuChE = target: T2, ratBuChE (Rattus norvegicus, UniProt Q9JKC1); test: ratBuChE inhibition, modified Ellman's method; assay type: biochemical
T2 construct: BuChE from rat serum or human serum (Sigma Co.); from tissue; host or cells: rat serum
T2 sequence (Q9JKC1 24-597): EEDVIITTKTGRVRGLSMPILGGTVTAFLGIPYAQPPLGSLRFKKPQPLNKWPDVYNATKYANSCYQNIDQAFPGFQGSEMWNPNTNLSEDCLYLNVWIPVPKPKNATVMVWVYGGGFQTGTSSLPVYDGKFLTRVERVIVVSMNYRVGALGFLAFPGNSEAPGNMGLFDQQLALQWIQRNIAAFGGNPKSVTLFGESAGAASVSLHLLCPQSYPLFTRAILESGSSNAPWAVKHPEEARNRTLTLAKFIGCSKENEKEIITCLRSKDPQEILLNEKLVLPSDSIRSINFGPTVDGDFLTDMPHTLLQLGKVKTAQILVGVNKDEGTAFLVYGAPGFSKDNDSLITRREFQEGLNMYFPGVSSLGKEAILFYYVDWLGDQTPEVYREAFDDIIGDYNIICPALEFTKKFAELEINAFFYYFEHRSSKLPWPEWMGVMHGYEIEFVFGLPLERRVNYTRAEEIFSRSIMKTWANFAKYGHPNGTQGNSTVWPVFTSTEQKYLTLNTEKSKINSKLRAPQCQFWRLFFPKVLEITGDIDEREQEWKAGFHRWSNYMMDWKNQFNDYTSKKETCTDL
Description: as §1

Compound | SI (ratAChE) | IC50 (ratAChE; read-out: IC50 ± SD ratAChE) [µM] | ORAC [1] | IC50 (ratBuChE) [µM] | IC50 (ratAChE; IC50 ± SD ratAChE) [µM]
O=C1CC(c2ccc(OCCCCN3CCC(Cc4ccccc4)CC3)cc2)Oc2cc(OCCCCN3CCC(Cc4ccccc4)CC3)cc(O)c21 (centres unmarked) [Compound 7j] | 11.2 | 1.3 | 1.1 ± 0.03 μM of Trolox equivalent/μM of tested compound |  | 
O=c1cc(-c2ccc(OCCCCCN3CCC(CCCc4ccccc4)CC3)cc2)oc2cc(OCCCCCN3CCC(CCCc4ccccc4)CC3)cc(O)c12 [Compound 10o, 5-hydroxy-7-((5–(4-(3-phenylpropyl)piperidin-1-yl)pentyl)oxy)-2–(4-((5–(4–(3-phenylpropyl)piperidin-1-yl)pentyl)oxy)phenyl)-4H-chromen-4-one] | 3.9 | 4.1 ± 0.63 | 1.2 ± 0.03 μM of Trolox equivalent/μM of tested compound | 16.1 ± 0.25 | 
O=c1cc(-c2ccc(OCCCN3CCC(c4ccccc4)CC3)cc2)oc2cc(OCCCN3CCC(c4ccccc4)CC3)cc(O)c12 [Compound 10d, 5-hydroxy-7–(3-(4-phenylpiperidin-1-yl)propoxy)-2–(4-(3–(4-phenylpiperidin-1-yl)propoxy)phenyl)-4H-chromen-4-one] | 2.4 | 6.4 ± 0.22 | 1.1 ± 0.02 μM of Trolox equivalent/μM of tested compound | 15.1 ± 0.49 | 
O=C1CC(c2ccc(O)cc2)Oc2cc(OCCCCCN3CCC(Cc4ccccc4)CC3)cc(O)c21 (centres unmarked) [Compound 5g, 7-((5–(4-benzylpiperidin-1-yl)pentyl)oxy)-5-hydroxy-2–(4-hydroxyphenyl)chroman-4-one] | 7.5 | 2.5 ± 0.33 | 2.1 ± 0.02 μM of Trolox equivalent/μM of tested compound | 18.7 ± 0.33 | 
CCN(CCCCCCOc1ccc(C2CC(=O)c3c(O)cc(OCCCCCCN(CC)Cc4ccccc4)cc3O2)cc1)Cc1ccccc1 (centres unmarked) [Compound 7l] | 6.9 | 2.2 ± 0.13 | 1.2 ± 0.01 μM of Trolox equivalent/μM of tested compound | 15.1 ± 0.28 | 
O=c1cc(-c2ccc(OCCCCCN3CCC(c4ccccc4)CC3)cc2)oc2cc(OCCCCCN3CCC(c4ccccc4)CC3)cc(O)c12 [Compound 10n, 5-hydroxy-7-((5–(4-phenylpiperidin-1-yl)pentyl)oxy)-2–(4-((5–(4-phenylpiperidin-1-yl)pentyl)oxy)phenyl)-4H-chromen-4-one] | 4.9 | 3.6 ± 0.11 | 1.1 ± 0.04 μM of Trolox equivalent/μM of tested compound | 17.9 ± 0.46 | 
CCN(CCCOc1ccc(C2CC(=O)c3c(O)cc(OCCCN(CC)Cc4ccccc4)cc3O2)cc1)Cc1ccccc1 (centres unmarked) [Compound 7b, 7–(3-(benzyl(ethyl)amino)propoxy)-2–(4-(3-(benzyl(ethyl)amino)propoxy)phenyl)-5-hydroxychroman-4-one] | 2.5 | 7.4 ± 0.29 | 1.2 ± 0.04 μM of Trolox equivalent/μM of tested compound | 18.7 ± 0.37 | 
CCN1CCN(CCCOc2ccc(C3CC(=O)c4c(O)cc(OCCCN5CCN(CC)CC5)cc4O3)cc2)CC1 (centres unmarked) [Compound 7e, 7–(3-(4-ethylpiperazin-1-yl)propoxy)-2–(4-(3–(4-ethylpiperazin-1-yl)propoxy)phenyl)-5-hydroxychroman-4-one] | 1.9 | 8.2 ± 0.47 | 1.5 ± 0.02 μM of Trolox equivalent/μM of tested compound | 15.8 ± 0.62 | 
O=C1CC(c2ccc(O)cc2)Oc2cc(OCCCCN3CCCCC3)cc(O)c21 (centres unmarked) [Compound 5a, 5-hydroxy-2–(4-hydroxyphenyl)-7–(4-(piperidin-1-yl)butoxy)chroman-4-one] | 3.1 | 6.7 ± 0.31 | 2.2 ± 0.03 μM of Trolox equivalent/μM of tested compound | 20.9 ± 0.68 | 
CCN(CCCCOc1ccc(C2CC(=O)c3c(O)cc(OCCCCN(CC)Cc4ccccc4OC)cc3O2)cc1)Cc1ccccc1OC (centres unmarked) [Compound 7h, 7–(4-(ethyl(2-methoxybenzyl)amino)butoxy)-2–(4-(4-(ethyl(2-methoxybenzyl)amino)butoxy)phenyl)-5-hydroxychroman-4-one] | 19.7 | 0.86 ± 0.05 | 1.0 ± 0.04 μM of Trolox equivalent/μM of tested compound | 16.9 ± 0.34 | 
O=c1cc(-c2ccc(OCCCCN3CCN(Cc4ccccc4)CC3)cc2)oc2cc(OCCCCN3CCN(Cc4ccccc4)CC3)cc(O)c12 [Compound 10i, 7–(4-(4-Benzylpiperazin-1-yl)butoxy)-2–(4–(4-(4-benzylpiperazin-1-yl)butoxy)phenyl)-5-hydroxy-4H-chromen-4-one] |  | 6.9 ± 0.14 | 1.5 ± 0.02 μM of Trolox equivalent/μM of tested compound | 10.3 ± 0.19 | 
O=C1CC(c2ccc(OCCCN3CCC(c4ccccc4)CC3)cc2)Oc2cc(OCCCN3CCC(c4ccccc4)CC3)cc(O)c21 (centres unmarked) [Compound 7d, 5-hydroxy-7–(3-(4-phenylpiperidin-1-yl)propoxy)-2–(4-(3–(4-phenylpiperidin-1-yl)propoxy)phenyl)chroman-4-one] | 2.2 | 9.3 ± 0.37 | 1.0 ± 0.03 μM of Trolox equivalent/μM of tested compound | 20.3 ± 0.26 | 
O=c1cc(-c2ccc(OCCCN3CCC(Cc4ccccc4)CC3)cc2)oc2cc(OCCCN3CCC(Cc4ccccc4)CC3)cc(O)c12 [Compound 10c, 7–(3-(4-benzylpiperidin-1-yl)propoxy)-2–(4-(3–(4-benzylpiperidin-1-yl)propoxy)phenyl)-5-hydroxy-4H-chromen-4-one] | 2.5 | 5.5 ± 0.17 | 1.2 ± 0.03 μM of Trolox equivalent/μM of tested compound | 13.6 ± 0.67 | 
O=c1cc(-c2ccc(OCCCCN3CCC(Cc4ccccc4)CC3)cc2)oc2cc(OCCCCN3CCC(Cc4ccccc4)CC3)cc(O)c12 [Compound 10j, 7–(4-(4-Benzylpiperidin-1-yl)butoxy)-2–(4–(4-(4-benzylpiperidin-1-yl)butoxy)phenyl)-5-hydroxy-4H-chromen-4-one] | 8.7 | 1.8 ± 0.04 | 1.2 ± 0.03 μM of Trolox equivalent/μM of tested compound | 15.7 ± 0.24 | 
CC1CC(C)CN(CCCCCOc2ccc(-c3cc(=O)c4c(O)cc(OCCCCCN5CC(C)CC(C)C5)cc4o3)cc2)C1 (centres unmarked) [Compound 10p, 7-((5–(3,5-dimethylpiperidin-1-yl)pentyl)oxy)-2–(4-((5–(3,5-dimethylpiperidin-1-yl)pentyl)oxy)phenyl)-5-hydroxy-4H-chromen-4-one] | 2.2 | 6.2 ± 0.54 | 1.1 ± 0.02 μM of Trolox equivalent/μM of tested compound | 13.8 ± 0.37 | 
O=C1CC(c2ccc(O)cc2)Oc2cc(OCCCCN3CCN(Cc4ccccc4)CC3)cc(O)c21 (centres unmarked) [Compound 5e, 7–(4-(4-benzylpiperazin-1-yl)butoxy)-5-hydroxy-2–(4-hydroxyphenyl)chroman-4-one] | 1.4 | 9.2 ± 0.72 | 2.5 ± 0.01 μM of Trolox equivalent/μM of tested compound | 13.2 ± 0.43 | 
CC1CC(C)CN(CCCCCCOc2ccc(-c3cc(=O)c4c(O)cc(OCCCCCCN5CC(C)CC(C)C5)cc4o3)cc2)C1 (centres unmarked) [Compound 10v, 7-((6–(3,5-dimethylpiperidin-1-yl)hexyl)oxy)-2–(4-((6–(3,5-dimethylpiperidin-1-yl)hexyl)oxy)phenyl)-5-hydroxy-4H-chromen-4-one] | 1.8 | 8.1 ± 0.49 | 1.3 ± 0.03 μM of Trolox equivalent/μM of tested compound | 14.8 ± 0.29 | 
CCN(CCCOc1ccc(-c2cc(=O)c3c(O)cc(OCCCN(CC)Cc4ccccc4)cc3o2)cc1)Cc1ccccc1 [Compound 10b, 7–(3-(benzyl(ethyl)amino)propoxy)-2–(4-(3-(benzyl(ethyl)amino)propoxy)phenyl)-5-hydroxy-4H-chromen-4-one] | 4.3 | 4.3 ± 0.38 | 1.0 ± 0.04 μM of Trolox equivalent/μM of tested compound | 18.6 ± 0.24 | 
O=c1cc(-c2ccc(OCCCN3CCC(CCCc4ccccc4)CC3)cc2)oc2cc(OCCCN3CCC(CCCc4ccccc4)CC3)cc(O)c12 [Compound 10e, 5-hydroxy-7–(3-(4–(3-phenylpropyl)piperidin-1-yl)propoxy)-2–(4-(3–(4–(3-phenylpropyl)piperidin-1-yl)propoxy)phenyl)-4H-chromen-4-one] |  | 7.9 ± 0.26 | 1.1 ± 0.02 μM of Trolox equivalent/μM of tested compound | 13.8 ± 0.43 | 
O=c1cc(-c2ccc(OCCCCCCN3CCC(c4ccccc4)CC3)cc2)oc2cc(OCCCCCCN3CCC(c4ccccc4)CC3)cc(O)c12 [Compound 10t, 5-hydroxy-7-((6–(4-phenylpiperidin-1-yl)hexyl)oxy)-2–(4-((6–(4-phenylpiperidin-1-yl)hexyl)oxy)phenyl)-4H-chromen-4-one] | 3.3 | 5.9 ± 0.37 | 1.0 ± 0.02 μM of Trolox equivalent/μM of tested compound | 19.3 ± 0.67 | 
O=c1cc(-c2ccc(O)cc2)oc2cc(O)cc(O)c12 [apigenin, reference compound] |  |  | 5.6 ± 0.52 μM of Trolox equivalent/μM of tested compound | > 50 | > 50
